Measured values published in the supplement of paper PMC10627819.

Assays:
B. subtilis 168 [1] = assay: fitness (endpoint OD595 vs no drug) (fraction); higher = more growth
Method in brief: (§1)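 Fitness was defined as the optical density at the transition into stationary phase relative to the robust mean of no-drug control wells. Values were capped at 1. Cultures were started at OD595 0.01 in 384-well plates (30 µl, or 55 µl for S. pneumoniae) in TSB, LB Lennox or CY at 37 °C. OD595 was recorded every 30 min over 14 h, with the first reading subtracted as background.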

S. aureus DSM 20231 [2] = assay: as above
Method in brief: as §1

S. aureus Newman [3] = assay: as above
Method in brief: as §1

S. pneumoniae D39V [4] = assay: as above
Method in brief: as §1

B. subtilis 168 [5] = assay: Bliss interaction score (quartile over a dose matrix) (fitness difference); higher = more antagonism (negative = synergy)
Method in brief: (§2)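 OD595 was read at entry into stationary phase and expressed relative to the robust mean of the no-drug wells on the same plate, capped at 1. The resulting ratio is the fitness value. The Bliss score, observed fitness minus product-based expected fitness with single-drug fitness inferred from combinations, is summarised by quartiles over technical, biological and donor/recipient replicates.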

S. aureus DSM 20231 [6] = assay: as above
Method in brief: as §2

S. aureus Newman [7] = assay: as above
Method in brief: as §2

S. pneumoniae D39V [8] = assay: as above
Method in brief: as §2
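For Bliss interaction score (quartile over a dose matrix) in this document: first quartile when negative (synergy) and third quartile when positive (antagonism).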

CO/N=C(\C(=O)N[C@@H]1C(=O)N2C(C(=O)O)=C(COC(C)=O)CS[C@H]12)c1csc(N)n1 [Cefotaxime] + Cc1onc(-c2ccccc2)c1C(=O)N[C@@H]1C(=O)N2[C@@H]1SC(C)(C)[C@@H]2C(=O)O [Oxacillin]
one replicate
Settings | fitness
B. subtilis 168 [1], first compound 0.00775 µg/mL, partner 0.0078 µg/mL | 0.82
B. subtilis 168 [1], first compound 0.00775 µg/mL, partner 0.0155 µg/mL | 0.789
B. subtilis 168 [1], first compound 0.00775 µg/mL, partner 0.031 µg/mL | 0.741
B. subtilis 168 [1], first compound 0.0155 µg/mL, partner 0.0078 µg/mL | 0.644
B. subtilis 168 [1], first compound 0.0155 µg/mL, partner 0.0155 µg/mL | 0.664
B. subtilis 168 [1], first compound 0.0155 µg/mL, partner 0.031 µg/mL | 0.548
B. subtilis 168 [1], first compound 0.031 µg/mL, partner 0.0078 µg/mL | 0.482
B. subtilis 168 [1], first compound 0.031 µg/mL, partner 0.0155 µg/mL | 0.537
B. subtilis 168 [1], first compound 0.031 µg/mL, partner 0.031 µg/mL | 0.395
B. subtilis 168 [1], first compound 0.0625 µg/mL, partner 0.075 µg/mL | 0.0512
B. subtilis 168 [1], first compound 0.0625 µg/mL, partner 0.15 µg/mL | 0.0585
B. subtilis 168 [1], first compound 0.0625 µg/mL, partner 0.3 µg/mL | 0.0527
B. subtilis 168 [1], first compound 0.125 µg/mL, partner 0.075 µg/mL | 0.0627
B. subtilis 168 [1], first compound 0.125 µg/mL, partner 0.15 µg/mL | 0.0636
B. subtilis 168 [1], first compound 0.125 µg/mL, partner 0.3 µg/mL | 0.0489
B. subtilis 168 [1], first compound 0.25 µg/mL, partner 0.075 µg/mL | 0.0575
B. subtilis 168 [1], first compound 0.25 µg/mL, partner 0.15 µg/mL | 0.0677
B. subtilis 168 [1], first compound 0.25 µg/mL, partner 0.3 µg/mL | 0.0596
S. aureus Newman [3], first compound 0.039 µg/mL, partner 0.0156 µg/mL | 0.689
S. aureus Newman [3], first compound 0.039 µg/mL, partner 0.0312 µg/mL | 0.662
S. aureus Newman [3], first compound 0.039 µg/mL, partner 0.0625 µg/mL | 0.629
S. aureus Newman [3], first compound 0.312 µg/mL, partner 0.0156 µg/mL | 0.317
S. aureus Newman [3], first compound 0.312 µg/mL, partner 0.0312 µg/mL | 0.224
S. aureus Newman [3], first compound 0.312 µg/mL, partner 0.0625 µg/mL | 0.181

Settings | fitness
B. subtilis 168 [1], first compound 0.5 µg/mL, partner 0.002 µg/mL | 0.272
B. subtilis 168 [1], first compound 0.5 µg/mL, partner 0.008 µg/mL | 0.249
B. subtilis 168 [1], first compound 1 µg/mL, partner 0.002 µg/mL | 0.158
B. subtilis 168 [1], first compound 1 µg/mL, partner 0.004 µg/mL | 0.118
B. subtilis 168 [1], first compound 1 µg/mL, partner 0.008 µg/mL | 0.133
B. subtilis 168 [1], first compound 2 µg/mL, partner 0.002 µg/mL | 0.115
B. subtilis 168 [1], first compound 2 µg/mL, partner 0.004 µg/mL | 0.114
B. subtilis 168 [1], first compound 2 µg/mL, partner 0.008 µg/mL | 0.113
S. aureus DSM 20231 [2], first compound 0.039 µg/mL, partner 0.0156 µg/mL | 0.696
S. aureus DSM 20231 [2], first compound 0.039 µg/mL, partner 0.0312 µg/mL | 0.624
S. aureus DSM 20231 [2], first compound 0.039 µg/mL, partner 0.0625 µg/mL | 0.632
S. aureus DSM 20231 [2], first compound 0.078 µg/mL, partner 0.0156 µg/mL | 0.681
S. aureus DSM 20231 [2], first compound 0.078 µg/mL, partner 0.0312 µg/mL | 0.655
S. aureus DSM 20231 [2], first compound 0.078 µg/mL, partner 0.0625 µg/mL | 0.639
S. aureus DSM 20231 [2], first compound 0.156 µg/mL, partner 0.0156 µg/mL | 0.599
S. aureus DSM 20231 [2], first compound 0.156 µg/mL, partner 0.0312 µg/mL | 0.623
S. aureus DSM 20231 [2], first compound 0.156 µg/mL, partner 0.0625 µg/mL | 0.655
S. aureus DSM 20231 [2], first compound 0.312 µg/mL, partner 0.0156 µg/mL | 0.593
S. aureus DSM 20231 [2], first compound 0.312 µg/mL, partner 0.0312 µg/mL | 0.594
S. aureus DSM 20231 [2], first compound 0.312 µg/mL, partner 0.0625 µg/mL | 0.478
S. aureus Newman [3], first compound 0.078 µg/mL, partner 0.0156 µg/mL | 0.745
S. aureus Newman [3], first compound 0.078 µg/mL, partner 0.0312 µg/mL | 0.627
S. aureus Newman [3], first compound 0.078 µg/mL, partner 0.0625 µg/mL | 0.531
S. aureus Newman [3], first compound 0.156 µg/mL, partner 0.0156 µg/mL | 0.6
S. aureus Newman [3], first compound 0.156 µg/mL, partner 0.0312 µg/mL | 0.555
S. aureus Newman [3], first compound 0.156 µg/mL, partner 0.0625 µg/mL | 0.38
S. aureus Newman [3], first compound 0.625 µg/mL, partner 0.0156 µg/mL | 0.0697
S. aureus Newman [3], first compound 0.625 µg/mL, partner 0.0312 µg/mL | 0.0379
S. aureus Newman [3], first compound 0.625 µg/mL, partner 0.0625 µg/mL | 0.0206
S. aureus Newman [3], first compound 1.25 µg/mL, partner 0.0156 µg/mL | 0.0601
S. aureus Newman [3], first compound 1.25 µg/mL, partner 0.0312 µg/mL | 0.0503
S. aureus Newman [3], first compound 1.25 µg/mL, partner 0.0625 µg/mL | 0.0594
S. aureus Newman [3], first compound 2.5 µg/mL, partner 0.0156 µg/mL | 0.0599
S. aureus Newman [3], first compound 2.5 µg/mL, partner 0.0312 µg/mL | 0.0551
S. aureus Newman [3], first compound 2.5 µg/mL, partner 0.0625 µg/mL | 0.0574
S. pneumoniae D39V [4], first compound 0.0018 µg/mL, partner 0.005 µg/mL | 0.999
S. pneumoniae D39V [4], first compound 0.0018 µg/mL, partner 0.01 µg/mL | 0.983
S. pneumoniae D39V [4], first compound 0.0018 µg/mL, partner 0.02 µg/mL | 0.937
S. pneumoniae D39V [4], first compound 0.0018 µg/mL, partner 0.04 µg/mL | 0.345
S. pneumoniae D39V [4], first compound 0.0035 µg/mL, partner 0.005 µg/mL | ≥ 1
S. pneumoniae D39V [4], first compound 0.0035 µg/mL, partner 0.01 µg/mL | 0.979
S. pneumoniae D39V [4], first compound 0.0035 µg/mL, partner 0.02 µg/mL | 0.874
S. pneumoniae D39V [4], first compound 0.0035 µg/mL, partner 0.04 µg/mL | 0.189
S. pneumoniae D39V [4], first compound 0.007 µg/mL, partner 0.005 µg/mL | 0.979
S. pneumoniae D39V [4], first compound 0.007 µg/mL, partner 0.04 µg/mL | 0.0612

Settings | Bliss interaction score
B. subtilis 168 [5] | 0.0466
S. aureus DSM 20231 [6] | 0.0453
S. aureus Newman [7] | 0.0747
S. pneumoniae D39V [8] | -0.116

CO/N=C(\C(=O)N[C@@H]1C(=O)N2C(C(=O)O)=C(COC(C)=O)CS[C@H]12)c1csc(N)n1 [Cefotaxime] + O=C(O[C@@H]1Cc2c(O)cc(O)cc2O[C@@H]1c1cc(O)c(O)c(O)c1)c1cc(O)c(O)c(O)c1 [EGCG]
fitness, one replicate
Settings | first compound 0.00775 µg/mL | first compound 0.0155 µg/mL | first compound 0.031 µg/mL | first compound 0.039 µg/mL | first compound 0.0625 µg/mL | first compound 0.125 µg/mL | first compound 0.25 µg/mL | first compound 0.312 µg/mL
B. subtilis 168 [1], partner 6.25 µg/mL | 0.847 | 0.723 | 0.588 | – | 0.532 | 0.462 | 0.403 | –
B. subtilis 168 [1], partner 12.5 µg/mL | 0.466 | 0.341 | 0.284 | – | 0.59 | 0.521 | 0.475 | –
B. subtilis 168 [1], partner 25 µg/mL | 0.192 | 0.129 | 0.133 | – | 0.547 | 0.484 | 0.32 | –
S. aureus Newman [3], partner 12.5 µg/mL | – | – | – | 0.751 | – | – | – | 0.317
S. aureus Newman [3], partner 25 µg/mL | – | – | – | 0.786 | – | – | – | 0.268
S. aureus Newman [3], partner 50 µg/mL | – | – | – | 0.726 | – | – | – | 0.14

fitness
Settings | partner 6.25 µg/mL | partner 12.5 µg/mL | partner 25 µg/mL | partner 50 µg/mL
B. subtilis 168 [1], first compound 0.5 µg/mL | 0.265 | 0.293 | 0.103 | –
B. subtilis 168 [1], first compound 1 µg/mL | 0.119 | 0.166 | 0.0631 | –
B. subtilis 168 [1], first compound 2 µg/mL | 0.0879 | 0.142 | 0.0481 | –
S. aureus DSM 20231 [2], first compound 0.039 µg/mL | – | 0.696 | 0.702 | 0.651
S. aureus DSM 20231 [2], first compound 0.078 µg/mL | – | 0.655 | 0.704 | 0.625
S. aureus DSM 20231 [2], first compound 0.156 µg/mL | – | 0.685 | 0.697 | 0.746
S. aureus DSM 20231 [2], first compound 0.312 µg/mL | – | 0.736 | 0.622 | –
S. aureus Newman [3], first compound 0.078 µg/mL | – | 0.594 | 0.615 | 0.573
S. aureus Newman [3], first compound 0.156 µg/mL | – | 0.574 | 0.391 | 0.564
S. aureus Newman [3], first compound 0.625 µg/mL | – | 0.198 | 0.071 | 0.0397
S. aureus Newman [3], first compound 1.25 µg/mL | – | 0.0285 | 0.0144 | 0.0286
S. aureus Newman [3], first compound 2.5 µg/mL | – | 0.0123 | 0.0423 | 0.0268
S. pneumoniae D39V [4], first compound 0.0018 µg/mL | – | 0.977 | 0.978 | 0.939
S. pneumoniae D39V [4], first compound 0.0035 µg/mL | – | 0.989 | ≥ 1 | 0.955
S. pneumoniae D39V [4], first compound 0.007 µg/mL | – | 0.889 | 0.914 | 0.883

Settings | Bliss interaction score
B. subtilis 168 [5] | 0.112
S. aureus DSM 20231 [6] | 0.0466
S. aureus Newman [7] | 0.0329
S. pneumoniae D39V [8] | 0.07
